Reference: PMC5442318, “Hundreds of dual-stage antimalarial molecules discovered by a functional gametocyte screen” (Nature Communications, 2017)
Where two headings read alike, the source gives them in different places.

Columns and labels:
[1] = system: P. falciparum stages IV–V gametocytes; test: Gametocytocidal ATP-depletion assay (gametocyte ATP bioluminescence); type: cell-based, Plasmodium falciparum; conditions: for inhibition at 2 µM: Plasmodium falciparum, mean
In short: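 Read-out is luciferase luminescence of parasite ATP (BacTiter-Glo), standing in for viability. Double-purified mature stage IV–V gametocytes, 12,500 per well, were exposed 48 h at 37 °C in low-O2 gas; screening concentration 2 μM.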

[2] = system: P. falciparum female gametes; test: Pf FGAA with compounds added 30 min after triggering gametocyte activation (gamete-targeting); type: cell-based, Plasmodium falciparum NF54; conditions: 0h incubation time
[3] = system: P. falciparum stage V female gametocytes; test: P. falciparum female gametocyte activation assay (Pf FGAA), 24 h or 48 h preincubation, Pfs25 expression readout; type: cell-based, Plasmodium falciparum NF54; conditions: for Pf FGAA classification: SLOW / FAST / GAMETE from activity at 48h, 24h, 0h incubation
In short: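 Female activation, triggered by xanthurenic acid and cooling, was scored by imaging Cy3-labelled anti-Pfs25 female gametes after 24 h at 26 °C. Beforehand, purified NF54 stage V gametocytes had been incubated with compound for either 24 h or 48 h (37 °C, 3% O2). Values are pIC50 from full-curve regression.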

[4] = system: P. falciparum asexual blood stages; conditions: cited from earlier work; for IC50: read-out: Pf Asexual blood stages XC50
HepG2 cells = test: HepG2 cytotoxicity assay; type: cell-based; conditions: for Selectivity ratio: HepG2 TOX50 versus Pf FGAA IC50
In short: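 Luminescent read-out (CellTiter-Glo) taken 10 min after reagent addition at RT; plates and reagent pre-equilibrated 30 min at RT.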

[5] = 24h incubation time, read-out: Pf FGAA IC50 (µM) 24h
[6] = P. falciparum female gametocytes, mean, read-out: Gametocytes mean Pf FGAA IC50
[7] = TCAMS asexual blood stage data, ref 1 (Gamo, F. J. et al., Nature 465, 305-310, 2010)
[8] = TCAMS data, ref 1 (Gamo, F. J. et al., Nature 465, 305-310, 2010)
[9] = mean, read-out: Gametocytes mean Pf FGAA IC50
[10] = TCAMS data, ref 1 (Gamo et al., 2010)
[11] = Plasmodium falciparum, 24h incubation time, read-out: Pf FGAA IC50 (µM) 24h
[12] = Plasmodium falciparum, P. falciparum female gametocytes, mean, read-out: Gametocytes mean Pf FGAA IC50

| Structure (SMILES) | IC50 [2] | IC50 [3, 5] | IC50 [3, 6] | IC50 [3, 9] | Gametocytes mean ATP inhibition at 2µM [1] | Pf FGAA classification [3] | IC50 [4, 7] | Pf Asexual stages XC50 [4, 8] | HepG2 cells mean TOX50 (HepG2 cells; HepG2 cells, mean) | Gametocytes mean ATP inhibition at 2µM (%) [1] | IC50 [4, 10] | HepG2 cells mean TOX50 (HepG2 cells; mean) | other results |
| --- | --- | --- | --- | --- | --- | --- | --- | --- | --- | --- | --- | --- | --- |
| Clc1ccc(-c2csc3ncnc(Cl)c23)cc1 [TCMDC-123811] | > 20 µM | 3.25 µM | 1.57 µM | – | -1.98% | SLOW | 460 nM | 460 nM | 94.46 µM | – | – | – | – |
| CCOc1ccc(-n2nc3c(Cl)nnc(-c4ccccc4)c3c2-c2ccccc2)cc1 [TCMDC-123899] | > 20 µM | > 20 µM | 0.94 µM | – | -0.60% | SLOW | 230 nM | 310 nM | >100 µM | – | – | – | HepG2 cells TOX50 (HepG2 cells; HepG2 cells): >100 µM |
| N#Cc1c(F)cc(N2CCC(NCC[C@H](N)Cc3ccc(F)c(F)c3)CC2)cc1F [TCMDC-132121] | – | – | – | – | – | SLOW | 860 nM | 860 nM | – | – | – | – | inhibition at 2 µM [1]: 7.46%; IC50 ([2]; Plasmodium falciparum): 7.08 µM; IC50 [3, 11]: 7.16 µM; IC50 [3, 12]: 0.73 µM; Selectivity ratio (HepG2 cells): 6.30; HepG2 cells mean TOX50 (HepG2 cells; human, 48 h): 4.58 µM |
| COc1ccc(NC(=O)Nc2ccc(Nc3nc(C)cc(N4CCCC4)n3)cc2)cc1 [TCMDC-124958] | – | – | – | – | – | FAST | 140 nM | 140 nM | 11.89 µM | – | – | – | inhibition at 2 µM [1]: -9.01%; IC50 ([2]; Plasmodium falciparum): 10.1 µM; IC50 [3, 11]: 2.16 µM; IC50 [3, 12]: 1.08 µM; Selectivity ratio (HepG2 cells): 11.05 |
| COc1cccc(-c2csc(C(=O)NCC3CCN(Cc4ccc(C(C)C)cc4)C3)c2)c1.O=C(O)C(F)(F)F (stereo not shown) [TCMDC-134439] | > 20 µM | 3.22 µM | 1.37 µM | – | 2.89% | SLOW | 1390 nM | 1390 nM | 11.51 µM | – | – | – | – |
| O=C(O)C(F)(F)F.O=S(=O)(NCCN1CCCC1)c1ccc(-c2cccc(CNC3Cc4ccccc4C3)c2)s1 [TCMDC-132217] | > 20 µM | 5.37 µM | 1.29 µM | – | 18.03% | SLOW | 750 nM | 750 nM | 5.50 µM | – | – | – | – |
| O=C(NCC1CCN(Cc2cccc(C(F)(F)F)c2)C1)c1cc(-c2cccc(F)c2)cs1.O=C(O)C(F)(F)F (stereo not shown) [TCMDC-134484] | > 20 µM | 2.82 µM | 2.26 µM | – | -3.56% | SLOW | 1180 nM | 1180 nM | 18.87 µM | – | – | – | – |
| Cc1cccc2nc(-c3ccc(-c4ccc(CNCCN5CCNCC5)cc4)s3)[nH]c12.O=C(O)C(F)(F)F [TCMDC-132870] | > 20 µM | 18.8 µM | 1.53 µM | – | 8.76% | SLOW | 1150 nM | 1150 nM | 14.29 µM | – | – | – | – |
| Cc1cc(C(F)(F)F)cc(-n2ncc(-c3ccc(C(=O)NCc4ccccc4N)cc3)c2N)n1.O=C(O)C(F)(F)F [TCMDC-136658] | > 20 µM | 12.5 µM | – | 1.46 µM | – | SLOW | – | 450 nM | – | -1.42% | 450 nM | 26.82 µM | – |
| N#CC(c1ccc(Br)cc1)c1ccc2c(C(F)(F)F)cc(C(F)(F)F)nc2n1 (stereo not shown) [TCMDC-123754] | – | – | – | – | – | SLOW | 440 nM | 440 nM | 2.32 µM | – | – | – | inhibition at 2 µM [1]: -2.55%; IC50 ([2]; Plasmodium falciparum): > 20 µM; IC50 [3, 11]: > 20 µM; IC50 [3, 12]: 1.16 µM; Selectivity ratio (HepG2 cells): 2.01 |
| CN1CCN(CCCNc2ncc3c(-c4ccc(NC(=O)Nc5cc(C(F)(F)F)ccc5F)c(F)c4)nn(C)c3n2)CC1.O=C(O)C(F)(F)F [TCMDC-141611] | 11.3 µM | 11.1 µM | – | – | -15.14% | SLOW | 860 nM | 860 nM | – | – | – | – | IC50 ([3]; mean, P. falciparum female gametocyte activation assay, read-out: Gametocytes mean Pf FGAA IC50): 0.87 µM; HepG2 cells mean TOX50 (HepG2 cells; mean, HepG2 cells): 4.90 µM |

Second part, led by results:

| IC50 [2] | IC50 [3, 5] | IC50 [3, 6] | IC50 [3, 9] | Structure (SMILES) | Gametocytes mean ATP inhibition at 2µM [1] | Pf FGAA classification [3] | IC50 [4, 7] | Pf Asexual stages XC50 [4, 8] | HepG2 cells mean TOX50 (HepG2 cells; HepG2 cells, mean) | Gametocytes mean ATP inhibition at 2µM (%) [1] | IC50 [4, 10] | HepG2 cells mean TOX50 (HepG2 cells; mean) | other results |
| --- | --- | --- | --- | --- | --- | --- | --- | --- | --- | --- | --- | --- | --- |
| 12.3 µM | 5.74 µM | 1.41 µM | – | CC(C)N1CCN(C(CN2CCN(CCCOc3ccccc3-c3ccccc3)CC2)c2ccc(F)cc2)CC1.Cl (stereo not shown) [TCMDC-135499] | -15.92% | SLOW | 790 nM | 790 nM | 4.32 µM | – | – | – | – |
| 3.56 µM | 0.3 µM | 1.14 µM | – | CCN(CCNS(C)(=O)=O)c1ccc(N)c(C)c1.O.O=S(=O)(O)O [TCMDC-125836] | 7.23% | FAST | 880 nM | 880 nM | 26.14 µM | – | – | – | – |
| > 20 µM | 5.44 µM | – | 1.58 µM | COc1cc2nc(Nc3ccc4c(ccn4Cc4ccccc4)c3)nc(Nc3ccc4c(ccn4Cc4ccccc4)c3)c2cc1OC [TCMDC-138237] | – | SLOW | – | 650 nM | – | 12.64% | 650 nM | 14.13 µM | – |
| 14.4 µM | 1.86 µM | – | 0.73 µM | CCCCCCCN1CC[C@@H](CCCc2ccnc3ccc(OC)cc23)[C@@H](CNC)C1.O=C(O)C(=O)O [TCMDC-139875] | – | FAST | – | 210 nM | – | 9.45% | 210 nM | 5.89 µM | – |
| 10.6 µM | 0.23 µM | – | 0.73 µM | CN(C)CCOc1ccc(NC(=O)NC(C)(C)c2nc(-c3ccc(Cl)c(O)c3)c(-c3ccncc3)[nH]2)cc1.Cl [TCMDC-140744] | – | FAST | – | 110 nM | – | -0.87% | 110 nM | 14.30 µM | – |
| 13.1 µM | 14.2 µM | – | 1.38 µM | CC(=O)Nc1ccc2[nH]cc(C3CCN(CC4CCN(C(=O)/C=C/c5ccc(Cl)c(Cl)c5)CC4)CC3)c2n1 [TCMDC-140112] | – | SLOW | – | 160 nM | – | 8.03% | 160 nM | 12.59 µM | – |
| 14.4 µM | > 20 µM | 0.24 µM | – | c1ccn2c(Sc3ncnc4sccc34)ncc2c1 [TCMDC-124602] | 12.16% | SLOW | 660 nM | 660 nM | >100 µM | – | – | – | HepG2 cells TOX50 (HepG2 cells; HepG2 cells): >100 µM |
| 0.49 µM | 0.79 µM | – | 0.84 µM | CC(C)(CN)c1nc(-c2ccc(Br)c(O)c2)c(-c2ccncc2)[nH]1.Cl [TCMDC-140680] | – | GAMETE | – | 390 nM | – | -3.29% | 960 nM | 45.82 µM | – |
| > 20 µM | 3.33 µM | – | 1.54 µM | Cc1noc(C)c1-c1ccc2c(Nc3nccc4ccccc34)c(C(N)=O)cnc2c1 [TCMDC-136456] | – | SLOW | – | 890 nM | – | 0.55% | 890 nM | 3.85 µM | – |
| > 20 µM | 11.2 µM | – | 1.96 µM | CN(/N=C/C=C/c1ccc(Cl)cc1)c1nc(NCCc2ccc(O)cc2)nc(N2CCNCC2)n1 [TCMDC-138546] | – | SLOW | – | 870 nM | – | -1.95% | 870 nM | 13.18 µM | – |
| > 20 µM | 2.89 µM | 0.72 µM | – | C[C@H](Cc1ccc(OCCCCCCOc2ccc(C[C@@H](C)N[C@H](C)c3ccccc3)cc2)cc1)NC[C@H](O)c1cccc(Cl)c1.Cl [TCMDC-131564] | 38.50% | SLOW | 240 nM | 240 nM | 4.28 µM | – | – | – | – |
